Reference: patent publication US8952024B2, “Herbicidal pyrimidone derivatives” (E I du Pont de Nemours and Company, priority 2009, dated 2015)

Legend:
Experiment in all cases: Test B pre-/postemergence plant response
Type in all cases: in vivo
[1] = test system: downy bromegrass (Bromus tectorum)
How it was run: (§1)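 Visual ratings on a 0–100 scale (100 = complete control) were made versus untreated controls 13–15 days after treatment in a greenhouse. Compounds in surfactant-containing non-phytotoxic solvent were applied preemergence to seeds in loam–sand blend or postemergence to 1- to 4-leaf plants (2–18 cm).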

[2] = test system: velvetleaf (Abutilon theophrasti)
How it was run: as §1

[3] = test system: large crabgrass (Digitaria sanguinalis)
How it was run: as §1

[4] = test system: Surinam grass (Brachiaria decumbens)
How it was run: as §1

[5] = test system: yellow nutsedge (Cyperus esculentus)
How it was run: as §1

wild oat (Avena fatua) = test system: wild oat (Avena fatua)
How it was run: as §1

[6] = test system: cocklebur (Xanthium strumarium)
How it was run: as §1

[7] = test system: green foxtail (Setaria viridis)
How it was run: as §1

[8] = test system: goosegrass (Eleusine indica)
How it was run: as §1

[9] = test system: johnsongrass (Sorghum halepense)
How it was run: as §1

[10] = test system: woolly cupgrass (Eriochloa villosa)
How it was run: as §1

soybean (Glycine max) = test system: soybean (Glycine max)
How it was run: as §1

[11] = test system: blackgrass (Alopecurus myosuroides)
How it was run: as §1

[12] = test system: giant foxtail (Setaria faberii)
How it was run: as §1

corn (Zea mays) = test system: corn (Zea mays)
How it was run: as §1

kochia (Kochia scoparia) = test system: kochia (Kochia scoparia)
How it was run: as §1

[13] = test system: morningglory (Ipomoea coccinea)
How it was run: as §1

[14] = 16 g ai/ha, Postemergence, 0 to 100 scale
[15] = 31 g ai/ha, postemergence, scale 0 to 100, 0 is no effect, 100 is complete control
[16] = 62 g ai/ha, postemergence, 0 is no effect, 100 is complete control, 13 to 15 days
[17] = Postemergence, 125 g ai/ha, visual rating after 13 to 15 days, scale 0 (no effect) to 100 (complete control)
[18] = Preemergence, 16 g ai/ha, scale 0 to 100, 0 no effect, 100 complete control
[19] = Preemergence, 31 g ai/ha, scale 0 to 100 (0 no effect, 100 complete control)
[20] = Preemergence, 62 g ai/ha, scale 0 to 100, 0 no effect, 100 complete control
[21] = Preemergence, 125 g ai/ha, scale 0 to 100, 0 no effect, 100 complete control

O=C1CCCC(O)=C1C(=O)c1cnc(-c2cccc(Br)c2)n(-c2ccccc2)c1=O [Compound 69] was tested, and the “Plant response rating, Bromegrass, Downy” value [1, 14] was 30, the “Plant response rating, Bromegrass, Downy” value [1, 15] was 40 and the “Bromegrass, Downy plant response rating (0 to 100 scale)” value [1, 16] was 55. For the same molecule, the “Plant response rating, Bromegrass, Downy” value [1, 17] was 70, the “Plant response rating, Bromegrass, Downy” value [1, 18] was 0 and the “Plant response rating, Bromegrass, Downy” value [1, 19] was 0. For the same molecule, the “Plant response rating, Bromegrass, Downy” value [1, 20] was 0, the “Plant response rating, Bromegrass, Downy” value [1, 21] was 0 and the “Plant response rating, Velvetleaf” value [2, 14] was 75. The “Plant response rating, Velvetleaf” value [2, 15] was 95, the “Velvetleaf plant response rating (0 to 100 scale)” value [2, 16] was 98 and the “Plant response rating, Velvetleaf” value [2, 17] was 98. The “Plant response rating, Velvetleaf” value [2, 19] was 70, the “Plant response rating, Velvetleaf” value [2, 20] was 70 and the “Plant response rating, Velvetleaf” value [2, 21] was 85. The “Plant response rating, Crabgrass, Large” value [3, 14] was 95, the “Plant response rating, Crabgrass, Large” value [3, 15] was 95 and the “Crabgrass, Large plant response rating (0 to 100 scale)” value [3, 16] was 95. For the same molecule, the “Plant response rating, Crabgrass, Large” value [3, 17] was 98, the “Plant response rating, Crabgrass, Large” value [3, 18] was 75 and the “Plant response rating, Crabgrass, Large” value [3, 19] was 98. For the same molecule, the “Plant response rating, Crabgrass, Large” value [3, 20] was 100, the “Plant response rating, Crabgrass, Large” value [3, 21] was 100 and the “Plant response rating, Surinam Grass” value [4, 14] was 75. The “Plant response rating, Surinam Grass” value [4, 15] was 85, the “Surinam Grass plant response rating (0 to 100 scale)” value [4, 16] was 90 and the “Plant response rating, Surinam Grass” value [4, 17] was 100. The “Plant response rating, Surinam Grass” value [4, 19] was 80, the “Plant response rating, Surinam Grass” value [4, 20] was 100 and the “Plant response rating, Surinam Grass” value [4, 21] was 100. The “Plant response rating, Nutsedge, Yellow” value [5, 14] was 5, the “Plant response rating, Nutsedge, Yellow” value [5, 15] was 5 and the “Nutsedge, Yellow plant response rating (0 to 100 scale)” value [5, 16] was 10. For the same molecule, the “Plant response rating, Nutsedge, Yellow” value [5, 17] was 40, the “Plant response rating, Nutsedge, Yellow” value [5, 18] was 0 and the “Plant response rating, Nutsedge, Yellow” value [5, 19] was 0. The “Plant response rating, Nutsedge, Yellow” value [5, 20] was 0, the “Plant response rating, Nutsedge, Yellow” value [5, 21] was 0 and the “Plant response rating, Oat, Wild” value (wild oat (Avena fatua); [14]) was 50. The “Plant response rating, Oat, Wild” value (wild oat (Avena fatua); [15]) was 60, the “Oat, Wild plant response rating (0 to 100 scale)” value (wild oat (Avena fatua); [16]) was 80 and the “Plant response rating, Oat, Wild” value (wild oat (Avena fatua); [17]) was 85. For the same molecule, the “Plant response rating, Oat, Wild” value (wild oat (Avena fatua); [18]) was 0, the “Plant response rating, Oat, Wild” value (wild oat (Avena fatua); [19]) was 0 and the “Plant response rating, Oat, Wild” value (wild oat (Avena fatua); [20]) was 0. The “Plant response rating, Oat, Wild” value (wild oat (Avena fatua); [21]) was 0, the “Plant response rating, Cocklebur” value [6, 14] was 0 and the “Plant response rating, Cocklebur” value [6, 15] was 0. For the same molecule, the “Cocklebur plant response rating (0 to 100 scale)” value [6, 16] was 0, the “Plant response rating, Cocklebur” value [6, 17] was 20 and the “Plant response rating, Cocklebur” value [6, 18] was 0. The “Plant response rating, Cocklebur” value [6, 19] was 0, the “Plant response rating, Cocklebur” value [6, 20] was 0 and the “Plant response rating, Cocklebur” value [6, 21] was 10. The “Plant response rating, Foxtail, Green” value [7, 14] was 75, the “Plant response rating, Foxtail, Green” value [7, 15] was 95 and the “Foxtail, Green plant response rating (0 to 100 scale)” value [7, 16] was 98. For the same molecule, the “Plant response rating, Foxtail, Green” value [7, 17] was 100, the “Plant response rating, Foxtail, Green” value [7, 20] was 70 and the “Plant response rating, Foxtail, Green” value [7, 21] was 85. For the same molecule, the “Plant response rating, Goosegrass” value [8, 14] was 75, the “Plant response rating, Goosegrass” value [8, 15] was 75 and the “Goosegrass plant response rating (0 to 100 scale)” value [8, 16] was 80. For the same molecule, the “Plant response rating, Goosegrass” value [8, 17] was 85, the “Plant response rating, Goosegrass” value [8, 18] was 55 and the “Plant response rating, Goosegrass” value [8, 19] was 95. The “Plant response rating, Goosegrass” value [8, 20] was 100, the “Plant response rating, Goosegrass” value [8, 21] was 100 and the “Plant response rating, Johnsongrass” value [9, 14] was 75. The “Plant response rating, Johnsongrass” value [9, 15] was 98, the “Johnsongrass plant response rating (0 to 100 scale)” value [9, 16] was 100 and the “Plant response rating, Johnsongrass” value [9, 17] was 100. The “Plant response rating, Johnsongrass” value [9, 18] was 0, the “Plant response rating, Johnsongrass” value [9, 19] was 5 and the “Plant response rating, Johnsongrass” value [9, 20] was 45. For the same molecule, the “Plant response rating, Johnsongrass” value [9, 21] was 85, the “Plant response rating, Cupgrass, Woolly” value [10, 14] was 75 and the “Plant response rating, Cupgrass, Woolly” value [10, 15] was 90. The “Cupgrass, Woolly plant response rating (0 to 100 scale)” value [10, 16] was 95, the “Plant response rating, Cupgrass, Woolly” value [10, 17] was 95 and the “Plant response rating, Cupgrass, Woolly” value [10, 18] was 0. The “Plant response rating, Cupgrass, Woolly” value [10, 19] was 0, the “Plant response rating, Cupgrass, Woolly” value [10, 20] was 0 and the “Plant response rating, Cupgrass, Woolly” value [10, 21] was 45. The “Plant response rating, Soybean” value (soybean (Glycine max); [14]) was 45, the “Plant response rating, Soybean” value (soybean (Glycine max); [15]) was 80 and the “Soybean plant response rating (0 to 100 scale)” value (soybean (Glycine max); [16]) was 90. The “Plant response rating, Soybean” value (soybean (Glycine max); [17]) was 98, the “Plant response rating, Blackgrass” value [11, 14] was 0 and the “Plant response rating, Blackgrass” value [11, 15] was 0. The “Blackgrass plant response rating (0 to 100 scale)” value [11, 16] was 0, the “Plant response rating, Blackgrass” value [11, 17] was 0 and the “Plant response rating, Blackgrass” value [11, 18] was 0. For the same molecule, the “Plant response rating, Blackgrass” value [11, 19] was 0, the “Plant response rating, Blackgrass” value [11, 20] was 0 and the “Plant response rating, Blackgrass” value [11, 21] was 0. The “Plant response rating, Foxtail, Giant” value [12, 14] was 80, the “Plant response rating, Foxtail, Giant” value [12, 15] was 95 and the “Foxtail, Giant plant response rating (0 to 100 scale)” value [12, 16] was 98. The “Plant response rating, Foxtail, Giant” value [12, 17] was 98, the “Plant response rating, Foxtail, Giant” value [12, 18] was 0 and the “Plant response rating, Foxtail, Giant” value [12, 19] was 5. For the same molecule, the “Plant response rating, Foxtail, Giant” value [12, 20] was 75, the “Plant response rating, Foxtail, Giant” value [12, 21] was 90 and the “Plant response rating, Corn” value (corn (Zea mays); [14]) was 0. For the same molecule, the “Plant response rating, Corn” value (corn (Zea mays); [15]) was 5, the “Corn plant response rating (0 to 100 scale)” value (corn (Zea mays); [16]) was 10 and the “Plant response rating, Corn” value (corn (Zea mays); [17]) was 25. The “Plant response rating, Corn” value (corn (Zea mays); [18]) was 0, the “Plant response rating, Corn” value (corn (Zea mays); [19]) was 0 and the “Plant response rating, Corn” value (corn (Zea mays); [20]) was 0. The “Plant response rating, Corn” value (corn (Zea mays); [21]) was 0, the “Plant response rating, Kochia” value (kochia (Kochia scoparia); [14]) was 60 and the “Plant response rating, Kochia” value (kochia (Kochia scoparia); [15]) was 60. For the same molecule, the “Kochia plant response rating (0 to 100 scale)” value (kochia (Kochia scoparia); [16]) was 70, the “Plant response rating, Kochia” value (kochia (Kochia scoparia); [17]) was 80 and the “Plant response rating, Kochia” value (kochia (Kochia scoparia); [19]) was 0. For the same molecule, the “Plant response rating, Kochia” value (kochia (Kochia scoparia); [20]) was 20, the “Plant response rating, Kochia” value (kochia (Kochia scoparia); [21]) was 45 and the “Plant response rating, Morningglory” value [13, 14] was 65. The “Plant response rating, Morningglory” value [13, 15] was 70, the “Morningglory plant response rating (0 to 100 scale)” value [13, 16] was 70 and the “Plant response rating, Morningglory” value [13, 17] was 75. For the same molecule, the “Plant response rating, Morningglory” value [13, 18] was 0, the “Plant response rating, Morningglory” value [13, 19] was 0 and the “Plant response rating, Morningglory” value [13, 20] was 0. For the same molecule, the “Plant response rating, Morningglory” value [13, 21] was 0.
